Measurements taken from US11026925B2, “Angiotensin II receptor antagonist metabolite and NEP inhibitor composite and preparation method thereof” (SHENZHEN SALUBRIS PHARMACEUTICALS CO. LTD, priority 2016, dated 2021).
Structures can show the parent of a compound that is named as a salt.

Experiments:
[1] = test system: animal model with heart failure (ligation of left anterior descending coronary artery); assay: anti-heart failure activity (short term, acute) in animal model (rat); format: in vivo; conditions: for mAP / mLVP: 7 days before and 3 days after ligation, measured Day 11; for improvement effect on mAP and mLVP / effect on lowering blood pressure compared with untreated animal group: short-term administration, rat
Experimental: The animal model with heart failure using ligation of left anterior descending coronary artery was prepared, the therapeutic drug to the modeling animal was administrated by pre-gavage, once per day for 7 continuous days, and was continuously administrated for three days after successful modeling.
SD male rats aged 6-week old;
Pre-test preparation: All animals were divided into 5 groups by randomized blocks, 6 rats in each group, and the animals were acclimated for 3 days before test treatment; Experimental process: Therapeutic drug was given to the test animals by pre-gavage, once per day for 7 continuous days. Operation was conducted on Day 8, the animals were anesthetized, trachea was connected to a respirator, electrocardiograph (ECG) was connected for real-time recording, thoracic cavity was opened between the 3rd and 4th ribs, left anterior descending coronary artery was ligated, ST segment elevation of ECG indicated successful ligation, the thoracic cavity was closed, and the skin was sutured;
The animals were anesthetized on Day 11, ECG was measured, and then arterial pressure and left ventricular pressure were measured by carotid artery intubation.

[2] = test system: animal model with heart failure (ligation of left anterior descending coronary artery); assay: anti-heart failure activity (long term, chronic) in animal model (rat); format: in vivo
[3] = Hygroscopicity (plain sample) at RH 75% and RH 85%; format: physicochemical
[4] = test system: patients with heart failure; conditions: compared with the enalapril treatment group; cited from earlier work
[5] = Flowability (angle of repose, bulk density); format: physicochemical
[6] = singly used as medication; cited from earlier work
[7] = 30 mg/kg gavage once per day for 4 weeks
[8] = 68 mg/kg gavage once per day for 4 weeks
[9] = samples crushed to particle size distribution similar to LCZ696

SMILES	mAP ([1]; 30 mg/kg gavage once per day) [mmHg]	mLVP ([1]; 30 mg/kg gavage once per day) [mmHg]	improvement effect on mAP and mLVP / effect on lowering blood pressure compared with untreated animal group [1]	Ejection fraction [2, 7] [%]	Heart rate [2, 7] [beats/min]	Myocardial fibrosis [2, 7] [%]	Thickness of heart wall [2, 7] [cm]	also measured
CCOC(=O)[C@H](C)C[C@@H](Cc1ccc(-c2ccccc2)cc1)NC(=O)CCC(=O)O [AHU377 calcium salt, AHU377 (Sacubitril, CAS: 149709-62-6)]	104	63	not significant	53.3	378.9	54.88	0.137	
CCCCC(=O)N(Cc1ccc(-c2ccccc2-c2nnn[n-]2)cc1)[C@H](C(=O)[O-])C(C)C.CCOC(=O)[C@H](C)C[C@@H](Cc1ccc(-c2ccccc2)cc1)NC(=O)CCC(=O)[O-].O.[Na+].[Na+].[Na+] [LCZ696]								mAP ([1]; 68 mg/kg gavage once per day): 78 mmHg; mLVP ([1]; 68 mg/kg gavage once per day): 44 mmHg; Ejection fraction [2, 8]: 70.6%; Heart rate [2, 8]: 412.9 beats/min; Myocardial fibrosis [2, 8]: 11.51%; state of test samples at the end of the hygroscopicity experiment ([3]; RH 75% and RH 85%, end of experiment): completely deliquescent; water content, RH 75% Day 0 ([3]; RH 75%, Day 0, plain sample): 4.9%; water content, RH 85% Day 0 ([3]; RH 85%, Day 0, plain sample): 4.9%; reduction of hospitalization rate of patients with heart failure [4]: 21%; electrostatic phenomenon of powder ([5]; powder property test): electrostatic phenomenon; flowability (in words) ([5]; powder property test): hardly flowable; Angle of repose [5, 9]: 57.35 °; Bulk density [5, 9]: 0.527 g/mL
CCCCc1nc(Cl)c(C(=O)O)n1Cc1ccc(-c2ccccc2-c2nnn[nH]2)cc1 [EXP3174]	106	61	not significant	47.9	427.8	62.89	0.136	bioavailability [6]: low bioavailability
